Test results reported in patent EP3925949A1, “AZIDO COMPOUNDS AND METHOD FOR MONITORING ACID CERAMIDASE ACTIVITY IN INTACT CELLS USING THEM” (Consejo Superior de Investigaciones Científicas (CSIC), priority 2020, dated 2021).

Legend:
Format in all cases: cell-based
CerS = CerS activity-dependence of labelling with RBM5-177 (confocal microscopy and UPLC-HRMS); details: A375/+Dox cells, FB1 100 µM, 24 h
Experimental: Cells were seeded at 5 × 10^5 cells/mL into 6 well plates (1 mL/well) and were allowed to adhere for 24 h. Medium was replaced with fresh medium containing RBM5-177, RBM5-019 or RBM2-37 (5 µM final concentration). After 30 min, medium was removed; cells were washed with 400 µL PBS and harvested with 400 µL Trypsin-EDTA and 600 µL of medium. NC recombinant enzyme, lysates from A375-AC overexpressing cells, MEF5 or microsomes from HeLa T-Rex ACER1-TET-ON and HeLa T-Rex ACER2-TET-ON cells stably overexpress ACER1 orACER2 respectively were incubated with RBM5-177 or RBM5-019 (10 µM final concentration) for 3 h in the corresponding ceramidase activity buffer. Cell pellets were resuspended with 100 µL of H2O and mixed with 750 µL of methanol: chloroform, 2:1. Samples were heated at 48°C overnight and next day, 75 µL of 1 M KOH in methanol were added, followed by 2 h incubation at 37°C. Afterwards, the saponification was neutralised with 75 µL of 1 M acetic acid and solvent was removed using a Speed Vac Savant SPD131 DDA (Thermo Scientific). […]
Cells were seeded at 1 × 10^5 cells/mL on glass-bottom plates and allowed to adhere for 24 h. […] Co-localization coefficients were measured using the JaCoP plugin (S. Bolte et al. J. Microsc. 2006, 224, 213-232) on the different stacks of images (at least n=4) with each stack containing 3-10 cells.

acid ceramidase (AC) [1] = molecular target: T1, acid ceramidase (AC) (Homo sapiens, UniProt Q13510); test: AC activity-dependence of labelling (fluorescence confocal microscopy); set-up: expressed in transfected cells; host or cells: FD/AC (overexpressing AC); details: A375/+Dox and A375/-Dox, with or without SOCLAC (Fig. 7A)
T1 sequence (Q13510 143-395 limits assumed): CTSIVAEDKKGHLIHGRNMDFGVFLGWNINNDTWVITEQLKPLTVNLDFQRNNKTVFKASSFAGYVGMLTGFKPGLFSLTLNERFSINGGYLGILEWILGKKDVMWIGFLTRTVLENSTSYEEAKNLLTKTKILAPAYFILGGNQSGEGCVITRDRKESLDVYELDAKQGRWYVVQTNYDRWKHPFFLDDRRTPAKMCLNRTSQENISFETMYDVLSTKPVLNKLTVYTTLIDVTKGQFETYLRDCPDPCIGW
T1 sequence (Q13510 22-142 limits assumed): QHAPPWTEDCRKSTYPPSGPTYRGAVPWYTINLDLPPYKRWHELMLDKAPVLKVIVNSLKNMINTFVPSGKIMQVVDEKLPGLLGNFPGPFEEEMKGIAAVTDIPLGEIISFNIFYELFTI
Experimental: Cells were seeded at 1 × 10^5 cells/mL on glass-bottom plates and allowed to adhere for 24 h. For golgi staining, cells were incubated with 40 µL/well of CellLight Golgi-RFP BacMam 2.0 for 24 h. […] After this time, the medium was replaced with fresh medium containing CO-1 (1 µM final concentration), and cells were incubated for 10 min. Then cells were washed 3 times with DMEM for 5 min at 37 °C, 75 nM LysoTracker Red DND-99 or 75 nM Mitotracker in phenol red-free DMEM was added to stain lysosomes or mitochondria, and cells were kept in the incubator for microscope analysis. Staining was viewed with a Zeiss LSM 880 confocal microscope or Leica TCS SP8-Hyvolution. Image analysis was performed using Fiji software.^[7] To measure the Manders's and Pearson's coefficients a threshold including organelles and discarding the background was set. Co-localization coefficients were measured using the JaCoP plugin (S. Bolte et al. J. Microsc. 2006, 224, 213-232) on the different stacks of images (at least n=4) with each stack containing 3-10 cells.

acid ceramidase (AC) [2] = molecular target: T1, acid ceramidase (AC); test: Fluorogenic AC activity in intact cells (substrate RBM14C12); set-up: expressed in transfected cells; host or cells: A375/+Dox (overexpressing AC); details: AC overexpressing A375 cells (A375/+Dox), 4 h, substrate RBM14C12 40 µM
Experimental: To determine AC activity in intact cells, A375 cells were seeded at 2.5 × 10^4 cells/mL in 96-well plates (0.1 ml/well) and grown for 24 h. Overexpression of AC was induced with doxycycline at 1 µg/mL for 24 h. Medium was replaced by DM120 at different concentrations and substrate RBM14C12 at a final concentration of 40 µM in DMEM. The plate was incubated for 4 h at 37°C in 5% CO2. The reaction was stopped with 25 µL of MeOH and then 100 µL of NalO4 (2.5 mg/mL in glycine-NaOH buffer, pH 10.6) was added. After incubation at 37°C for 1 h, 100 µL of 0.1 M glycine-NaOH buffer (pH 10.6) was added and fluorescence was measured spectrophotometrically at excitation and emission wavelengths of 355 and 460 nm, respectively. The same reaction mixture without cells was used as blank.

acid ceramidase (AC) [3] = molecular target: T1, acid ceramidase (AC); test: AC activity by flow cytometry with RBM5-177/CO-1 in intact cells; set-up: expressed in transfected cells; host or cells: A375/+Dox and FD/AC (overexpressing AC); A375/-Dox and A549 (endogenous AC); details: A375/+Dox, 4 h, RBM5-177 as substrate, labelling with CO-1 (1 µM, 10 min)
Experimental: Cells were seeded at 1 × 10^5 cells/mL into 6 well plates (1 mL/well) and were allowed to adhere for 24 h. Medium was replaced with fresh medium containing Soclac (5 µM final concentration) and incubated for 1 h. After this time, the medium was replaced with RBM5-177, RBM5-019 or RBM2-37 (5 µM final concentration) +/- Soclac and incubated for 20 min. In the experiments with DM120, the compound, Soclac and RBM5-177 were incubated together for 4 h. After probes incubation, the medium was replaced with fresh medium containing CO-1 (1 µM final concentration), and cells were incubated for 10 min. Then cells were washed 3 times with DMEM for 5 min at 37 °C, and finally washed with 400 µL PBS and harvested with 400 µL Trypsin-EDTA and 600 µL of medium. Pellets were resuspended with 200 µL of PBS and stained cells were analyzed by using a Guava EasyCyte™ flow cytometer (Merck Millipore, Billerica, MA) measuring green fluorescence (488/525 nm). Data analysis was performed using the Multicycle AV program (Phoenix Flow Systems, San Diego, CA).

acid ceramidase (AC) [4] = molecular target: T1, acid ceramidase (AC); test: AC activity in intact cells by UPLC-HRMS quantification of RBM5-019 and reacylated products; set-up: expressed in transfected cells; host or cells: A375/+Dox (overexpressing AC); details: A375/+Dox, 4 h, decrease in RBM5-19 amounts by UPLC-HRMS
Experimental: Cells were seeded at 5 × 10^5 cells/mL into 6 well plates (1 mL/well) and were allowed to adhere for 24 h. Medium was replaced with fresh medium containing RBM5-177, RBM5-019 or RBM2-37 (5 μM final concentration). After 30 min, medium was removed; cells were washed with 400 μL PBS and harvested with 400 μL Trypsin-EDTA and 600 μL of medium. NC recombinant enzyme, lysates from A375-AC overexpressing cells, MEF5 or microsomes from HeLa T-Rex ACER1-TET-ON and HeLa T-Rex ACER2-TET-ON cells stably overexpress ACER1 orACER2 respectively were incubated with RBM5-177 or RBM5-019 (10 μM final concentration) for 3 h in the corresponding ceramidase activity buffer. Cell pellets were resuspended with 100 μL of H2O and mixed with 750 μL of methanol: chloroform, 2:1. Samples were heated at 48°C overnight and next day, 75 μL of 1 M KOH in methanol were added, followed by 2 h incubation at 37°C. Afterwards, the saponification was neutralised with 75 μL of 1 M acetic acid and solvent was removed using a […] (Thermo Scientific). Sphingolipid extracts, fortified with internal standards (N-dodecanoylsphingosine, N-dodecanoylglucosylsphingosine, N-dodecanoylsphingosylphosphorylcoline and C17-sphinganine 0.2 nmol each) were solubilised in 150 μL of methanol. Samples were then centrifuged at 9,300 g for 3 min and 130 μL of the supernatant were injected to a Waters Aquity UPLC system connected to a Waters LCT Premier Orthogonal Accelerated Time of Flight Mass Spectrometer (Waters,Milford, MA, USA) operated in positive electrospray ionisation mode. Full scan spectra from 50 to 1500 Da were acquired and individual spectra were summed to produce data points each 0.2 s. Mass accuracy and reproducibility were maintained by using an independent reference spray by the LockSpray interference. The analytical column was a 100 mm x2.1 mm i.d., 1.7 μm C8 Acquity UPLC BEH (Waters). The two mobile phases were phase A: methanol/water/formic acid (74/25/1 v/v/v); phase B: methanol/formic acid (99/1 v/v), both also contained 5 mM ammonium formate. […]

A375 cells = test: Cell viability (MTT method); details: A375/+Dox, 4 h, whole range of concentrations examined
Experimental: A375 cells were seeded at 2.5 × 10^4 cells/mL in 96-well plates (0.1 ml/well) and grown for 24 h. Overexpression of AC was induced with doxycycline at 1 µg/mL for 24 h. Cell viability was examined in triplicate samples by MTT method after treatment with DM120 at different concentrations or with the corresponding percentage of vehicle for 4 h.

## CCCC[C@@H](C)[C@@H](OC(=O)C[C@@H](CC(=O)O)C(=O)O)[C@H](C[C@@H](C)C[C@H](O)CCCC[C@@H](O)C[C@H](O)[C@H](C)N)OC(=O)C[C@@H](CC(=O)O)C(=O)O [FB1, Fumonisin B1]
CerS; UPLC-HRMS (Fig. 4B)
  effect on transacylation (N-acylderivatives): transacylation was blocked
CerS; confocal microscopy (Fig. 4A)
  effect on extralysosomal staining: prevented

## C[C@H](N)[C@H](O)CCCCCCCCCCCCN=[N+]=[N-] [RBM5-019, (2S,3R)-2-Amino-15-azidopentadecan-3-ol]
Acid ceramidase (AC) [1]
  sensitivity of lysosome labelling to AC activity: not sensitive to AC overexpression or blockade

## CCCCCCCCCCCCC/C=C/[C@H](CO)NC(=O)C(C)(C)C [DM120]
Acid ceramidase (AC) [2]
  IC50: 9.4 µM
Acid ceramidase (AC) [3]
  IC50: 27 µM
Acid ceramidase (AC) [4]
  IC50: 18 µM
A375 cells
  toxicity: without toxicity in the whole range of concentrations examined
